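Values below derive from 48-hour exposures of cells grown in 96-well plates, with endpoints linearly interpolated between the two concentrations bracketing the appropriate inhibition level. TGI marks complete inhibition of growth.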
How the values were obtained:
Assay in all cases: NCI-60 cell line screen, 48 h
[1] = test system: K-562 leukemia
[2] = test system: A498 renal
[3] = test system: TK-10 renal
[4] = test system: 786-0 renal
[5] = test system: UO-31 renal
[6] = test system: DU-145 prostate
[7] = test system: HCT-15 colon
[8] = test system: MCF7 breast
[9] = test system: NCI-H226 lung
[10] = test system: A549 NSCLC
[11] = test system: RXF 393 renal
[12] = test system: NCI-H522 lung
[13] = test system: MDA-MB-435
[14] = test system: SK-MEL-5 melanoma
[15] = test system: IGROV1 ovarian
[16] = test system: EKVX NSCLC
[17] = test system: HCC-2998 colon
[18] = test system: HL-60(TB) leukemia
[19] = test system: SF-539 CNS
[20] = test system: NCI-H460 lung
[21] = test system: SK-MEL-2 melanoma
[22] = test system: SF-295 CNS
[23] = test system: HOP-92 NSCLC
[24] = test system: RPMI-8226 leukemia
[25] = test system: HS 578T breast
[26] = test system: CAKI-1 renal
[27] = test system: U251 CNS
[28] = test system: SN12C renal
[29] = test system: PC-3 prostate
[30] = test system: ACHN renal
[31] = test system: LOX IMVI melanoma
[32] = test system: UACC-62 melanoma
[33] = test system: SK-MEL-28 melanoma
[34] = test system: CCRF-CEM leukemia
[35] = test system: SNB-19 CNS
[36] = test system: MOLT-4 leukemia
[37] = test system: UACC-257 melanoma
[38] = test system: SK-OV-3 ovarian
[39] = test system: SF-268 CNS
[40] = test system: SNB-75 CNS
[41] = test system: COLO 205 colon
[42] = test system: OVCAR-4 ovarian
[43] = test system: OVCAR-5 ovarian
[44] = test system: MALME-3M melanoma
[45] = test system: HOP-62 NSCLC
[46] = test system: MDA-MB-231 breast
[47] = test system: SW-620 colon
[48] = test system: HCT-116 colon
[49] = test system: BT-549 breast
[50] = test system: SR leukemia
[51] = test system: HT29 colon
[52] = test system: OVCAR-3 ovarian
[53] = test system: MDA-N
[54] = test system: NCI/ADR-RES ovarian
[55] = test system: T-47D breast
[56] = test system: NCI-H23 lung
[57] = test system: OVCAR-8 ovarian
[58] = test system: KM12 colon
[59] = test system: M14 melanoma

Compound: COC(=O)Cc1c([C@H]2[C@H](CC(=O)OC)c3ccccc3N2C(=O)C(F)(F)F)[nH]c2ccccc12
- TGI [1]: > 100 µM
- TGI [2]: > 100 µM
- TGI [3]: > 100 µM
- TGI [4]: > 100 µM
- TGI [5]: > 100 µM
- TGI [6]: > 100 µM
- TGI [7]: > 100 µM
- TGI [8]: > 100 µM
- TGI [9]: > 100 µM
- TGI [10]: > 100 µM
- TGI [11]: 98.4 µM
- TGI [12]: 56.2 µM
- TGI [13]: 62 µM
- TGI [14]: 24.8 µM
- TGI [15]: > 100 µM
- TGI [16]: > 100 µM
- TGI [17]: > 100 µM
- TGI [18]: > 100 µM
- TGI [19]: > 100 µM
- TGI [20]: 55 µM
- TGI [21]: 58.3 µM
- TGI [22]: 80.7 µM
- TGI [23]: > 100 µM
- TGI [24]: > 100 µM
- TGI [25]: 92.1 µM
- TGI [26]: > 100 µM
- TGI [27]: 47.8 µM
- TGI [28]: > 100 µM
- TGI [29]: > 100 µM
- TGI [30]: > 100 µM
- TGI [31]: > 100 µM
- TGI [32]: 30.3 µM
- TGI [33]: > 100 µM
- TGI [34]: 56.2 µM
- TGI [35]: > 100 µM
- TGI [36]: 38.4 µM
- TGI [37]: > 100 µM
- TGI [38]: > 100 µM
- TGI [39]: > 100 µM
- TGI [40]: 84.6 µM
- TGI [41]: 36.1 µM
- TGI [42]: > 100 µM
- TGI [43]: > 100 µM
- TGI [44]: 90.6 µM
- TGI [45]: > 100 µM
- TGI [46]: 73.4 µM
- TGI [47]: > 100 µM
- TGI [48]: > 100 µM
- TGI [49]: 97.2 µM
- TGI [50]: 82.3 µM
- TGI [51]: > 100 µM
- TGI [52]: 38 µM
- TGI [53]: > 100 µM
- TGI [54]: 91.3 µM
- TGI [55]: > 100 µM
- TGI [56]: > 100 µM
- TGI [57]: > 100 µM

Compound: O=C(OC1C=C=CS(=O)(=O)CC#C/C=C\1)c1cnc2ccccc2n1 (stereo not given)
- TGI [1]: > 100 µM
- TGI [2]: > 100 µM
- TGI [3]: > 100 µM
- TGI [5]: > 100 µM
- TGI [6]: > 100 µM
- TGI [7]: > 100 µM
- TGI [8]: > 100 µM
- TGI [9]: > 100 µM
- TGI [10]: > 100 µM
- TGI [11]: > 100 µM
- TGI [12]: 51.6 µM
- TGI [13]: > 100 µM
- TGI [14]: > 100 µM
- TGI [15]: > 100 µM
- TGI [16]: > 100 µM
- TGI [17]: > 100 µM
- TGI [18]: > 100 µM
- TGI [19]: > 100 µM
- TGI [20]: > 100 µM
- TGI [21]: > 100 µM
- TGI [22]: > 100 µM
- TGI [23]: 90.1 µM
- TGI [24]: > 100 µM
- TGI [25]: > 100 µM
- TGI [26]: > 100 µM
- TGI [27]: > 100 µM
- TGI [28]: > 100 µM
- TGI [29]: > 100 µM
- TGI [30]: > 100 µM
- TGI [58]: > 100 µM
- TGI [31]: > 100 µM
- TGI [32]: > 100 µM
- TGI [33]: > 100 µM
- TGI [34]: > 100 µM
- TGI [35]: > 100 µM
- TGI [36]: > 100 µM
- TGI [37]: > 100 µM
- TGI [38]: > 100 µM
- TGI [39]: > 100 µM
- TGI [40]: > 100 µM
- TGI [41]: > 100 µM
- TGI [42]: > 100 µM
- TGI [43]: > 100 µM
- TGI [44]: > 100 µM
- TGI [59]: > 100 µM
- TGI [45]: > 100 µM
- TGI [46]: > 100 µM
- TGI [47]: > 100 µM
- TGI [48]: > 100 µM
- TGI [49]: > 100 µM
- TGI [50]: > 100 µM
- TGI [51]: > 100 µM
- TGI [52]: > 100 µM
- TGI [53]: > 100 µM
- TGI [54]: > 100 µM
- TGI [55]: > 100 µM
- TGI [56]: > 100 µM
- TGI [57]: > 100 µM
